Columns and labels:
[1] = system: Sclerotinia sclerotiorum strain CH109; test: White mold disease index in pepper plants treated with PRBT or 6-HP-2CA; format: in vivo; conditions: for Disease index 4 dpi / Disease index 6 dpi: inoculated pepper var. Murano, 10 ml/plant, score 0-4
Procedure: Pepper plants var. Murano were sown on Oct. 20, 2016 and distributed in random blocks of 3 plants with 4 replicates (12 plants per treatment) and grown in a standard greenhouse. PRBT treated plants were sprayed on Nov. 23, 2016 with (0.038 g L^−1) PRBT at 10 ml/plant or with (0.01 g L^−1) 6-hydroxypiperidine-2-carboxylic acid (6-HP-2CA) or with (0.1 g L^−1) 6-HP-2CA or with (0.01 g L^−1) 6-HP-2CA formulated with an adjuvant or with (0.1 g L^−1) 6-HP-2CA (0.01 g L^−1) formulated with an adjuvant at 10 ml/plant. Two days later plants were inoculated with 10 ml/plant of a foliar spray of blended Sclerotinia sclerotiorum strain CH109 mycelium that had been grown to optical density at 600 nm of 1.7. Plants were kept at 100% relative humidity for four days and then humidity was lowered to 80% for the rest of the experiment. Plants were then evaluated 4, and 6 days post inoculation (dpi) according to a disease severity index score were 0 corresponds to no symptoms and 4 to a dead plant. No statistically significant differences among treatments with the same letter (LSD method, p=0.05)

[2] = system: Sclerotinia sclerotiorum strain CH109; test: White mold disease index in tomato plants treated with PRBT, 6-HP-2CA or 6-OXO-2CA; format: in vivo; conditions: for disease index vs untreated inoculated tomato plants: PRBT 0.054 g L-1, 6-HP-2CA 0.1 g/l, 6-OXO-2CA 0.1 g/l, 10 and 14 dpi; for Disease Control (%) / Disease index (10 dpi) / Disease index (15 dpi): inoculated tomato var. Money Maker, PRBT 0.054 g/L, 6-HP-2CA or 6-OXO-2CA 0.1 g/L, 25 ml/plant; for Disease index (10 dpi) / Disease index (15 dpi): score 0-5
Procedure: Tomato plants var. Money Maker were sown on Dec. 13, 2016, distributed in random blocks of 9 plants with 4 replicates (36 plants per treatment) and grown in a standard greenhouse. Treated plants were sprayed on Mar. 6, 2017 with 25 ml/plant at 3 ml/1 (0.054 g L^−1) of PRBT (with surfactant 2:1, v/w, antifoam and biocide) or with 25 ml (0.1 g L^−1) of 6-hydroxypiperidine-2-carboxylic acid (6-HP-2CA), or with 25 ml (0.1 g 1-1) of 6-oxopiperidine-2-carboxylic acid (6-OXO-2CA).
Two days later plants were inoculated with 25 ml/plant of a foliar spray of blended Sclerotinia sclerotiorum strain CH109 mycelium that had been grown to optical density at 600 nm of 0.8. Plants were kept at 100% relative humidity for seven days and then humidity was lowered to 80% for the rest of the experiment. Plants were then evaluated at 10 and 14 days post inoculation (dpi) according to a disease severity index score were 0 corresponds to no symptoms and 5 to a dead plant. No statistically significant differences among treatments with the same letter (LSD method, p=0.05)

Row | Compound | disease index vs untreated inoculated pepper plants ([1]; high (0.1 g/L) concentration) | Disease index 4 dpi ([1]; 0.01 g/L) | Disease index 6 dpi ([1]; 0.01 g/L) | Disease index 4 dpi ([1]; 0.1 g/L) | Disease index 6 dpi ([1]; 0.1 g/L) | disease index vs untreated inoculated tomato plants [2] | Disease Control (%) [2] | Disease index (10 dpi) [2] | Disease index (15 dpi) [2]
1 | O=C(O)C1CCCC(O)N1 (stereo not shown) [6-HP-2CA, 6-hydroxypiperidine-2-carboxylic acid] | significantly lower | 0.9 b | 2.3 b | 0.2 a | 0.5 a | significantly lower | 11 c % | 2.2 b | 2.2 b
2 | O=C1CCC[C@H](C(=O)O)N1 (stereo in doubt) [6-OXO-2CA, 6-oxopiperidine-2-carboxylic acid] |  |  |  |  |  | significantly lower | 10 c % | 2.3 b | 2.3 b
